According to ChEMBL document CHEMBL4706629, “New derivatives of 4'-phenyl-2,2':6',2″-terpyridine as promising anticancer agents” (Eur J Med Chem, 2021):
Values belong to the compound of their own block, whether it stands above or below them. The source made the active and inactive calls. The calls are words filed in the database; no cut-off is given here.

Assays:
PANC-1 [1] = assay: Cytotoxicity against human PANC-1 cells assessed as reduction in cell viability measured after 72 hrs by MTS assay; assay type: functional, cell-based; details: PANC-1, 72 h
HCT-116 = assay: Cytotoxicity against human HCT-116 cells assessed as reduction in cell viability measured after 72 hrs by MTS assay; assay type: functional, cell-based; details: HCT-116, 72 h
K562 = assay: Cytotoxicity against human K562 cells assessed as reduction in cell viability measured after 72 hrs by MTS assay; assay type: functional, cell-based; details: K562, 72 h
MCF7 [2] = assay: Cytotoxicity against human MCF7 cells assessed as reduction in cell viability measured after 72 hrs by MTS assay; assay type: functional, cell-based; details: MCF7, 72 h
NHDF = assay: Cytotoxicity against NHDF cells assessed as reduction in cell viability measured after 72 hrs by MTS assay; assay type: cell-based; details: Homo sapiens
U-251 = assay: Cytotoxicity against human U-251 cells assessed as reduction in cell viability measured after 72 hrs by MTS assay; assay type: functional, cell-based; details: U-251, 72 h
[3] = Dark toxicity in human HeLa cells assessed as reduction in cell viability measured after 4 hrs by resazurin dye based fluorescence assay
[4] = Drug localization in mitochondria of human MCF7 cells at 25 uM measured after 2 hrs by mitotracker orange dye based microscopic analysis; assay type: ADME; details: mcf7, 2 h
[5] = Drug localization in lysosomes of human MCF7 cells at 25 uM measured after 2 hrs by lysotracker red DND-99 dye based microscopic analysis; assay type: ADME, subcellular, Lysosome; details: mcf7, 2 h
PANC-1 [6] = assay: Induction of autophagy in human PANC-1 cells assessed as increase in LC3 expression at 25 uM measured after 24 hrs by muse cell analyzer based fluorescence assay relative to control; assay type: functional
PANC-1 [7] = assay: Up regulation of p53 expression in human PANC-1 cells at 5 uM measured after 24 hrs by Western blot analysis relative to control; assay type: functional, cell-based
MCF7 [8] = assay: Up regulation of p53 expression in human MCF7 cells at 5 uM measured after 24 hrs by Western blot analysis; assay type: functional, cell-based

SMILES: CCCCCOc1ccc(-c2cn(-c3ccc(-c4cc(-c5ccccn5)nc(-c5ccccn5)c4)cc3)nn2)cc1
IC50 (PANC-1 [1]): 374 nM
IC50 (HCT-116): 491 nM
IC50 (K562): 1790 nM
IC50 (MCF7 [2]): 871 nM
IC50 (NHDF): > 25000 nM
IC50 (U-251): 609 nM

SMILES: c1ccc(-c2cn(-c3ccc(-c4cc(-c5ccccn5)nc(-c5ccccn5)c4)cc3)nn2)cc1
IC50 (PANC-1 [1]): 287 nM
IC50 (HCT-116): 249 nM
IC50 (K562): 741 nM
IC50 (MCF7 [2]): 477 nM
IC50 (NHDF): > 25000 nM
IC50 (U-251): 955 nM

SMILES: CCCCCCCCn1c2ccccc2c2cc(-c3cn(-c4ccc(-c5cc(-c6ccccn6)nc(-c6ccccn6)c5)cc4)nn3)ccc21
IC50 (PANC-1 [1]): 3590 nM
IC50 (HCT-116): 6260 nM
IC50 (K562): 5500 nM
IC50 (MCF7 [2]): 9960 nM
IC50 (NHDF): > 25000 nM
IC50 (U-251): 10100 nM

SMILES: CCCCCCCCCCCCc1cn(-c2ccc(-c3cc(-c4ccccn4)nc(-c4ccccn4)c3)cc2)nn1
IC50 (PANC-1 [1]): > 25000 nM
IC50 (HCT-116): 13500 nM
IC50 (K562): 19800 nM
IC50 (MCF7 [2]): 11200 nM
IC50 (NHDF): 9070 nM
IC50 (U-251): 20400 nM

SMILES: COc1cc(-c2cccnc2)nc(-c2ccccn2)c1
IC50 at 4 h [3]: 40900 nM

SMILES: Clc1cc(-c2cccnc2)nc(-c2ccccn2)c1
IC50 at 4 h [3]: 26500 nM

SMILES: CCCCCCCCCCn1cc(-c2ccc(-c3cc(-c4nccs4)nc(-c4nccs4)c3)cc2)nn1
IC50 (PANC-1 [1]): > 25000 nM
IC50 (HCT-116): > 25000 nM
IC50 (K562): > 25000 nM
IC50 (MCF7 [2]): > 25000 nM
IC50 (U-251): > 25000 nM

SMILES: Oc1cn(-c2ccc(-c3cc(-c4ccccn4)nc(-c4ccccn4)c3)cc2)nn1
IC50 (PANC-1 [1]): 689 nM
IC50 (HCT-116): 782 nM
IC50 (K562): 1310 nM
IC50 (MCF7 [2]): 592 nM
IC50 (NHDF): 11800 nM
IC50 (U-251): 1400 nM

Drug uptake [4]: Active
Drug uptake [5]: Active
SMILES: CC1(C)c2ccccc2-c2ccc(-c3cn(-c4ccc(-c5cc(-c6ccccn6)nc(-c6ccccn6)c5)cc4)nn3)cc21
IC50 (PANC-1 [1]): 1870 nM
IC50 (HCT-116): 1290 nM
IC50 (K562): 625 nM
IC50 (MCF7 [2]): 1070 nM
IC50 (NHDF): > 25000 nM
IC50 (U-251): 1880 nM

SMILES: c1ccc(-c2cc(-c3ccc(-n4cc(-c5ccc6sc7ccccc7c6c5)nn4)cc3)cc(-c3ccccn3)n2)nc1
IC50 (PANC-1 [1]): 784 nM
IC50 (HCT-116): 918 nM
IC50 (K562): 7380 nM
IC50 (MCF7 [2]): 1720 nM
IC50 (NHDF): > 25000 nM
IC50 (U-251): 2390 nM

SMILES: c1ccc(-c2cc(-c3ccc(-n4cc(-c5ccc(-c6cccs6)s5)nn4)cc3)cc(-c3ccccn3)n2)nc1
IC50 (PANC-1 [1]): 2220 nM
IC50 (HCT-116): 822 nM
IC50 (K562): 1950 nM
IC50 (MCF7 [2]): 1790 nM
IC50 (NHDF): > 25000 nM
IC50 (U-251): 3590 nM

SMILES: CCCCCCCCCCn1cc(-c2ccc(-c3cc(-c4cnccn4)nc(-c4cnccn4)c3)cc2)nn1
IC50 (PANC-1 [1]): > 25000 nM
IC50 (HCT-116): > 25000 nM
IC50 (K562): > 25000 nM
IC50 (MCF7 [2]): > 25000 nM
IC50 (U-251): > 25000 nM

SMILES: Cc1ccc(NC(=O)c2ccc(CN3CCN(C)CC3)cc2)cc1Nc1nccc(-c2cccnc2)n1 [IMATINIB]
fold change (FC) (PANC-1 [6]): 2

SMILES: CN(C)c1cc(-c2cccnc2)nc(-c2ccccn2)c1
IC50 at 4 h [3]: 19600 nM

SMILES: c1ccc(-c2cccc(-c3cccnc3)n2)nc1
IC50 at 4 h [3]: 35100 nM

SMILES: N#Cc1ccc(-c2cn(-c3ccc(-c4cc(-c5ccccn5)nc(-c5ccccn5)c4)cc3)nn2)cc1
IC50 (PANC-1 [1]): 920 nM
IC50 (HCT-116): 1310 nM
IC50 (K562): 1570 nM
IC50 (MCF7 [2]): 372 nM
IC50 (NHDF): 2030 nM
IC50 (U-251): 1830 nM

SMILES: O=C(O)c1cc(-c2cccnc2)nc(-c2ccccn2)c1
IC50 at 4 h [3]: 50500 nM

SMILES: COc1cccc2c1C(=O)c1c(O)c3c(c(O)c1C2=O)C[C@@](O)(C(=O)CO)C[C@@H]3O[C@H]1C[C@H](N)[C@H](O)[C@H](C)O1 [DOXORUBICIN]
Activity (PANC-1 [7]): Active
IC50 (K562): 19 nM
IC50 (MCF7 [2]): 405 nM
IC50 (NHDF): 137 nM
Activity (MCF7 [8]): Active
IC50 (U-251): 52 nM
